Consider three compounds from patent US20260060928A1, “TALC-FREE ACTIVE INGREDIENT COATING” (Hermes Pharma GmbH, priority 2022, published 2026).

Values after ≈ are worked out from the molar mass of the structure shown. Structures can show the parent of a compound that is named as a salt.

The nature of this data set: Solubility of the active ingredient in water at room temperature. It counts as physicochemical. As to the method: Further, unless specified otherwise, any measured provisions such as densities, solubulities, or the like, are understood to be measured at room temperature (i.e., 20±5° C. as defined by the European Pharmacopoeia or by the WHO guidance ‘Guidelines for the Storage of Essential Medicines and Other Health Commodities’ (2003)).

With `COc1ccc2[nH]cc(CCNC(C)=O)c2c1` [melatonin], the solubility (usually how much of the substance goes into solution per volume) stood at 2000 µg/mL (≈ 8.61 mM). Still for that read-out and setting: next, `CNC[C@H](O)c1cccc(O)c1` [phenylephrine HCl]: at least 100000 µg/mL. Consider vitamin B12 [Vit. B12], for which the “solubility in water at room temperature” value was 12500 µg/mL.
